Data published in patent publication US20190308963A1, “HETEROCYCLIC COMPOUNDS AND USES THEREOF” (priority 2018, published 2019).

How the values were obtained:
BRD4 (BD2) = molecular target: T1, BRD4 (BD2) (Homo sapiens, UniProt O60885); experiment: AlphaScreen FRET binding assay, BRD4 (BD2); conditions: read-out: IC50 value for the inhibition of BRD4 (BD2)
T1 construct: recombinant human BRD4 (BD2; aa 349-460); purchased Reaction Biology Corporation (contract assay service); host or cells: E. coli
Procedure: (§1) Exemplary compounds of the invention were tested for inhibitory activity or potency against BRD4 (BD1) and BRD4 (BD2) using AlphaScreen FRET binding assay, and exemplary compounds of the invention were further tested for inhibitory activity or potency against class I PI3Ks (p110α/p85α, p110β/p85α, p110δ/p85α and p110γ) using a cell-free based .P13K HTRF assay. All assays were performed at Reaction Biology Corporation, One Great Valley Parkway, Suite 2, Malvem, Pa.
(§2) Exemplary compounds of the invention were tested for inhibitory activity or potency against BRD4 (BD1) and BRD4 (BD2) using AlphaScreen FRET binding assay. […] Briefly, donor beads coated with streptavidin were incubated with biotinylated histone H4 peptide (residues 1-21) containing KAc (K5/^8/12/16Ac). In the absence of inhibitor, the. His-tagged reader domain of BRD4 binds to KAc-histone H4 peptide, thereby recruiting acceptor beads coated with a nickel chelator. Binding potential is assessed by detecting light emission (520-620 nm) from acceptor beads following laser excitation (680 nm) of a photosensitizer within the donor beads that converts ambient oxygen to singlet oxygen.
(§3) All IC50 values were reported in unites of nM.

class I PI3Ks = experiment: summary in words of the class I PI3K (and BRD4) results; assay type: biochemical, human; conditions: for overall activity in words (class I PI3Ks and BRD4): against both divergent targets; for activity against PI3K in words: novel BRD inhibitors without PI3K activity
Procedure: Exemplary compounds of the invention were tested for inhibitory activity or potency against class I PI3Ks (p110α/p85α, p110β/p85α, p110δ/p85α and p110γ) using a cell-free based PI3K HTRF assay. This assay was used to detect the formation of the product 3,4,5-inositol triphosphate molecule (PIP3) by displacement of biotin-PIP3 from an energy transfer complex consisting of Europium labeled anti-GST monoclonal antibody, a GST-tagged pleckstrin homology (PH) domain, biotinylated PIP3 and Streptavidin-Allophycocyanin (APC). Excitation of Europium in the complex results in an energy transfer to the APC and a fluorescent emission at 665 nm. The PIP3 product formed by human PI3-Kinase activity displaces biotin-PIP3 from the complex resulting in a loss of energy transfer and thus a decrease in signal.
Human class I PI3K isoforms were co-expressed in a Baculovirus infected cell expression system. The PI3K isoforms were assayed in the presence of HEPES (50 mM, pH 7.0), NaN3 (0.02%), BSA (0.01%), orthovanadate (0.1 mM), and DMSO (1%). The exemplary compounds dissolved in DMSO were delivered into the kinase reaction mixture by Acoustic technology (Echo550; nanolitter range), and were pre-incubated for 10 min at room temperature before adding ATP (10 μM) to initiate the reaction. After 30 min at 30° C., the reactions were quenched with a stop solution, incubated overnight with a detection mixture before measuring HTRF (Ex: 320 nm; Em: 615/665 nm). The emission ratio is converted into μM PIP3 production based on PIP3 standard curves, and the nonlinear regression to obtain the standard curve and IC50 values are performed using Graphpad Prism software.
All IC50 values were reported in unites of nM. Empty cells indicate no inhibition or compound activity that could not be fit to an IC50 curve.
Dual inhibitors of class I PI3Ks and BRD4 are rare because class I PI3Ks and BRD4 are two structurally and functionally unrelated targets. […] The unexpected dual inhibitory activity or potency against both divergent targets is attributed to not only the unusual overall shape of the molecules of the present invention (as described in U.S. Pat. No. 9,637,488), but also the specific KAc-mimicking groups selected and their position incorporated into the quinoline ring.

BRD4 (BD1) = molecular target: T2, BRD4 (BD1) (Homo sapiens, UniProt O60885); experiment: AlphaScreen FRET binding assay, BRD4 (BD1); conditions: read-out: IC50 value for the inhibition of BRD4 (BD1)
T2 construct: recombinant human BRD4 (BD1; aa 44-170); purchased Reaction Biology Corporation (contract assay service); host or cells: E. coli
Procedure: as §1, §2, §3

PI3Kδ (p110δ/p85α) = PI3Kδ (p110δ/p85α) (Homo sapiens, UniProt O00329); experiment: cell-free PI3K HTRF assay, PI3Kδ
Procedure: (§4) Exemplary compounds of the invention were tested for inhibitory activity or potency against class I PI3Ks (p110α/p85α, p110β/p85α, p110δ/p85α and p110γ) using a cell-free based PI3K HTRF assay. This assay was used to detect the formation of the product 3,4,5-inositol triphosphate molecule (PIP3) by displacement of biotin-PIP3 from an energy transfer complex consisting of Europium labeled anti-GST monoclonal antibody, a GST-tagged pleckstrin homology (PH) domain, biotinylated PIP3 and Streptavidin-Allophycocyanin (APC). […] The PIP3 product formed by human PI3-Kinase activity displaces biotin-PIP3 from the complex resulting in a loss of energy transfer and thus a decrease in signal.
(§5) Human class I PI3K isoforms were co-expressed in a Baculovirus infected cell expression system. The PI3K isoforms were assayed in the presence of HEPES (50 mM, pH 7.0), NaN3 (0.02%), BSA (0.01%), orthovanadate (0.1 mM), and DMSO (1%). The exemplary compounds dissolved in DMSO were delivered into the kinase reaction mixture by Acoustic technology (Echo550; nanolitter range), and were pre-incubated for 10 min at room temperature before adding ATP (10 μM) to initiate the reaction. […] The emission ratio is converted into μM PIP3 production based on PIP3 standard curves, and the nonlinear regression to obtain the standard curve and IC50 values are performed using Graphpad Prism software.

PI3Kγ (p110γ) = PI3Kγ (p110γ) (Homo sapiens, UniProt P48736); experiment: cell-free PI3K HTRF assay, PI3Kγ
Procedure: as §4, §5

PI3Kα (p110α/p85α) = PI3Kα (p110α/p85α) (Homo sapiens, UniProt P42336); experiment: cell-free PI3K HTRF assay, PI3Kα
Procedure: as §4, §5

PI3Kβ (p110β/p85α) = PI3Kβ (p110β/p85α) (Homo sapiens, UniProt P42338); experiment: cell-free PI3K HTRF assay, PI3Kβ
Chain of PI3Kβ (p110β/p85α) (P42338 whole entry): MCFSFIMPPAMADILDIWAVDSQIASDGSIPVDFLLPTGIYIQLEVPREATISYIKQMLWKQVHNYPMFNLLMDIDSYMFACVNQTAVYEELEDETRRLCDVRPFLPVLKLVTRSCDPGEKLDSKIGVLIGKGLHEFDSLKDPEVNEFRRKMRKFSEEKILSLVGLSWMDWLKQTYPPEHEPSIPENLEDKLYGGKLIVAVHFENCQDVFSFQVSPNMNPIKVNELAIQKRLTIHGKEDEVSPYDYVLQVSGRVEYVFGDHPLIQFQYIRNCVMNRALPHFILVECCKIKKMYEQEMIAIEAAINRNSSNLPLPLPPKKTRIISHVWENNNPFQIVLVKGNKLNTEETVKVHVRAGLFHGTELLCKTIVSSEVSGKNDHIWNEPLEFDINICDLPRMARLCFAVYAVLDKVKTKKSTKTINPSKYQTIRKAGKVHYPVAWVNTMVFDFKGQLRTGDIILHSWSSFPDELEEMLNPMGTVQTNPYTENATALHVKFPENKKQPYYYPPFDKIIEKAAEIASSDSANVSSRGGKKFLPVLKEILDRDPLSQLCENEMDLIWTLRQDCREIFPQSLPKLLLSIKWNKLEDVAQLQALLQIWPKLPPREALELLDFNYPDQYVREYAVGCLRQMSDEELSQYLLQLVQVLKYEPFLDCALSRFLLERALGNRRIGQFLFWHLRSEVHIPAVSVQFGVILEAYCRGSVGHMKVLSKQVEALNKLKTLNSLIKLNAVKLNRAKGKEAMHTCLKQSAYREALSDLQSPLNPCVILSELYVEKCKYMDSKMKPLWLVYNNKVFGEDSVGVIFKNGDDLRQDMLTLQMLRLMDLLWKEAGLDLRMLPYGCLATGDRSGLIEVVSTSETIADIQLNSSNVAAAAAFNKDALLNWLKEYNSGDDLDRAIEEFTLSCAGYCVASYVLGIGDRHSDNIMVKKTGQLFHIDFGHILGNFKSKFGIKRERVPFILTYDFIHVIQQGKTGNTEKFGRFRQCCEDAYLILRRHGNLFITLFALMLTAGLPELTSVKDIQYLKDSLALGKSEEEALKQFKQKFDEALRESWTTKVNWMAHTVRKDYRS
Chain of PI3Kβ (p110β/p85α) (P27986 whole entry partner): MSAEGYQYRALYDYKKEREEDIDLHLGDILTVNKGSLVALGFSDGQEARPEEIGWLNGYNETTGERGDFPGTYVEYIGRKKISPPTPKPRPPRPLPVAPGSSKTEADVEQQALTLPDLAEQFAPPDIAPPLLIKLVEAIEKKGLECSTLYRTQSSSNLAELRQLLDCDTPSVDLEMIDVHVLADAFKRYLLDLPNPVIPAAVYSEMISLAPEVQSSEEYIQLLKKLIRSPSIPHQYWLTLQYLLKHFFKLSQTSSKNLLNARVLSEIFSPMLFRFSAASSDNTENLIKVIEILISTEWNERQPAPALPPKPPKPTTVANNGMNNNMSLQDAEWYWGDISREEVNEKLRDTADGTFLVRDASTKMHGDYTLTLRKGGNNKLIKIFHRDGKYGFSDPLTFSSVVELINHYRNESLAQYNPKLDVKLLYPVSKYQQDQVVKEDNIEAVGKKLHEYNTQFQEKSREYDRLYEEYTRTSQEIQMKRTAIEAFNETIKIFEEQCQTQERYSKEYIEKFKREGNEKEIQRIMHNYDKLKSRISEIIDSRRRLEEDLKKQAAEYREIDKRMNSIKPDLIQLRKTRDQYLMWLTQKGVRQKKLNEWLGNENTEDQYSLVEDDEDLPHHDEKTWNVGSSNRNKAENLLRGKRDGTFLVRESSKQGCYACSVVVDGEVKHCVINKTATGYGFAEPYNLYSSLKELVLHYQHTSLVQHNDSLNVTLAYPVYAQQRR
Procedure: as §4, §5

Chain of PI3Kδ (p110δ/p85α) (O00329 whole entry): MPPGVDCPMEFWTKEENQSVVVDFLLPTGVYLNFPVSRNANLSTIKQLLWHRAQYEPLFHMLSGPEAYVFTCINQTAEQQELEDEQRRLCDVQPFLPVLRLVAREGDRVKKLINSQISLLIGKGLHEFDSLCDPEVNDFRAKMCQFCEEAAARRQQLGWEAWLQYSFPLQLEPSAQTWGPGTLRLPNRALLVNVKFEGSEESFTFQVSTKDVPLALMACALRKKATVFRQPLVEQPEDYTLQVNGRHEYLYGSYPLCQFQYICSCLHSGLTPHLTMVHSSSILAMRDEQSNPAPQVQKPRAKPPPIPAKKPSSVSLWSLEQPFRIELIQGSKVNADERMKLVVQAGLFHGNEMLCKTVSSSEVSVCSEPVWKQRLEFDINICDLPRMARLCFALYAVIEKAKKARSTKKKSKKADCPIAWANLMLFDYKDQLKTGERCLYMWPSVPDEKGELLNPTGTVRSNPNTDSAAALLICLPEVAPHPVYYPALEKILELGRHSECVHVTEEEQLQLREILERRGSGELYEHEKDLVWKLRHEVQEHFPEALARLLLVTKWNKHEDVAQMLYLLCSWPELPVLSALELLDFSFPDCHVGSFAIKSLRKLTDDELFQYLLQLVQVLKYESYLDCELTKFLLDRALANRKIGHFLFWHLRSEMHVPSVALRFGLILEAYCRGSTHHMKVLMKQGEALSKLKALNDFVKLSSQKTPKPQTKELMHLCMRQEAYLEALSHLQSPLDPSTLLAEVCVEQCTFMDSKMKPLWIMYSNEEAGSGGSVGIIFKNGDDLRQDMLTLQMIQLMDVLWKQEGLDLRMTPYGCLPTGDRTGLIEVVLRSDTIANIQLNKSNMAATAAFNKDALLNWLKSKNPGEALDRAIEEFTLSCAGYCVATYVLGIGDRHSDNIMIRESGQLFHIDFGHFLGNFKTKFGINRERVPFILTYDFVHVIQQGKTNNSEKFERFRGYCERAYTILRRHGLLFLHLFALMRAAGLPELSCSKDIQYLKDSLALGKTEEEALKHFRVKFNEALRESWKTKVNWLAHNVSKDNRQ
Chain of PI3Kδ (p110δ/p85α) (P27986 whole entry partner): as the sequence (P27986 whole entry partner) above
Chain of PI3Kα (p110α/p85α) (P42336 whole entry): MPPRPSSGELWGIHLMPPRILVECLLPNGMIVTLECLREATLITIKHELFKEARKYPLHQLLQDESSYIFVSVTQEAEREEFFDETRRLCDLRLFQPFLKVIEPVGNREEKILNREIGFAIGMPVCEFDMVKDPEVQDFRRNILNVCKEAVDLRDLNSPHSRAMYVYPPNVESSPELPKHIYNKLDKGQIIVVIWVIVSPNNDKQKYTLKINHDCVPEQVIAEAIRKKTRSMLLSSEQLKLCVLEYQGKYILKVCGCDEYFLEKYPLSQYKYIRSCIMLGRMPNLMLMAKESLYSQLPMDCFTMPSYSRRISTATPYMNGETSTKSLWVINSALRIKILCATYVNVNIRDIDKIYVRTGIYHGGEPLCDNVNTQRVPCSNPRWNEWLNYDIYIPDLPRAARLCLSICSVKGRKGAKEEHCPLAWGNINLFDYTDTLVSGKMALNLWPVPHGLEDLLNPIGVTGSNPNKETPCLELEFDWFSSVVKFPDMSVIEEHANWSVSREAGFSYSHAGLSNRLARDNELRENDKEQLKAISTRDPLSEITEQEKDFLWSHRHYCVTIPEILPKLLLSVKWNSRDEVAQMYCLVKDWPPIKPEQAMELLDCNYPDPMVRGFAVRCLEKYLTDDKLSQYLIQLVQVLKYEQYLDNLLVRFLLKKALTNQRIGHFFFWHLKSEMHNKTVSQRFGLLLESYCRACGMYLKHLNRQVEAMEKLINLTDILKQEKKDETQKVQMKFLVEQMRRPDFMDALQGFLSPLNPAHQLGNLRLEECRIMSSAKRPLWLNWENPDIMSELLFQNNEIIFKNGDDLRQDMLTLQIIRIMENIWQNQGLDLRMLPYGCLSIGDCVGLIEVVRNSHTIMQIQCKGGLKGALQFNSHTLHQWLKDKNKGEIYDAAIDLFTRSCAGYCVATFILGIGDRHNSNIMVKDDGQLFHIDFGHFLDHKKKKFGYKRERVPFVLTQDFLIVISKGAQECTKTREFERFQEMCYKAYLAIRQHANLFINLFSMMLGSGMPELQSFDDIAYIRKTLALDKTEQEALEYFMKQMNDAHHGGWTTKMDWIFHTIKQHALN
Chain of PI3Kα (p110α/p85α) (P27986 whole entry partner): as the sequence (P27986 whole entry partner) above
Chain of PI3Kγ (p110γ) (P48736 whole entry): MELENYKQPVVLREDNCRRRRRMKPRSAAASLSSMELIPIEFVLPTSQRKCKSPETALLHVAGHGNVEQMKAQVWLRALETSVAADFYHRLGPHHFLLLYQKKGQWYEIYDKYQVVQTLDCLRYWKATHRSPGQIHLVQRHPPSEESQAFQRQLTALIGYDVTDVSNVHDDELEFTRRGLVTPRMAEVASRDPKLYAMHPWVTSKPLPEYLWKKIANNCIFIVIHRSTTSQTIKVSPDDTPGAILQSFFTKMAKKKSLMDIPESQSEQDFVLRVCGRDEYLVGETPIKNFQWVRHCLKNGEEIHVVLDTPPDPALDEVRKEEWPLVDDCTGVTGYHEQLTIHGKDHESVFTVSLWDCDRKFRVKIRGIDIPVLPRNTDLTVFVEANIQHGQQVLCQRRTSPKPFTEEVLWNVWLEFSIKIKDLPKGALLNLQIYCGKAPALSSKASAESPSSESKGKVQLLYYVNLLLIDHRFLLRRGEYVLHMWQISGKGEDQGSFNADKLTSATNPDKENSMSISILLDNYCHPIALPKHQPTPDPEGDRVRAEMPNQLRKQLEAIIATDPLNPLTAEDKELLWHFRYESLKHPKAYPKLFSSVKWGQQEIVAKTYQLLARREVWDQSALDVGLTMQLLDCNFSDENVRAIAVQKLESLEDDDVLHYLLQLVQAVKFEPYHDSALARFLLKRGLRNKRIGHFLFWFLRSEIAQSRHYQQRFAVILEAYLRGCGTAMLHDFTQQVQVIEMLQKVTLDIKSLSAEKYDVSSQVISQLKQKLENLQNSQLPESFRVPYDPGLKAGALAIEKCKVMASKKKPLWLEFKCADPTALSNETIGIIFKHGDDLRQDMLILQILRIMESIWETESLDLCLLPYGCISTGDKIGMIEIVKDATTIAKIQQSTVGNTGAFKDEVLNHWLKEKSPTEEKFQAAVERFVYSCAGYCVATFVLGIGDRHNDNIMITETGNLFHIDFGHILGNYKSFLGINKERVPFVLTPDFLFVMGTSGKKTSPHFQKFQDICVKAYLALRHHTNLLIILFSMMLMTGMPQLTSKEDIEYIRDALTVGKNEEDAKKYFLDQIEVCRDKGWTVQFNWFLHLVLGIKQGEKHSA

Compound: Cc1cc(-c2ccc(F)c3cc(C4CCCN4c4ncnc(N)c4C#N)c(N4CCOCC4)nc23)cn(C)c1=O (stereo not drawn) [Compound 16]
- IC50 (BRD4 (BD2)): 4970 nM
- overall activity in words (class I PI3Ks and BRD4) (class I PI3Ks): inactive

Compound: Cn1cc(-c2ccc3cc(C4CCCN4c4ncnc(N)c4C#N)c(N4CCOCC4)nc3c2)c2cc[nH]c2c1=O (stereo not drawn) [Compound 6]
- IC50 (BRD4 (BD1)): 3.5 nM
- activity against PI3K in words (class I PI3Ks): PI3K-inactive

Compound: Cc1noc(C)c1-c1nc2c(C)cccc2cc1C1CCCN1c1ncnc(N)c1C#N (stereo not drawn) [Compound 3, 4-amino-6-(2-(2-(3,5-dimethylisoxazol-4-yl)-8-methylquinolin-3-yl)pyrrolidin-1-yl)pyrimidine-5-carbonitrile]
- IC50 (PI3Kδ (p110δ/p85α)): 0.523 nM

Compound: Cc1cc(-c2c(F)ccc3cc(C4CCCN4c4ncnc(N)c4C#N)c(N4CCOCC4)nc23)cn(C)c1=O (stereo not drawn) [Compound 15]
- IC50 (BRD4 (BD1)): 1250 nM
- IC50 (BRD4 (BD2)): 680 nM

Compound: Cc1cc(-c2c(F)ccc3cc(C4CCCN4c4nc(N)nc(N)c4C#N)c(N4CCOCC4)nc23)cn(C)c1=O (stereo not drawn) [Compound 13]
- IC50 (BRD4 (BD1)): 799 nM
- IC50 (PI3Kγ (p110γ)): > 10000 nM
- IC50 (BRD4 (BD2)): 12.4 nM
- overall activity in words (class I PI3Ks and BRD4) (class I PI3Ks): inactive

Compound: Cn1cc(-c2cccc3cc(C4CCCN4c4nc(N)nc(N)c4C#N)c(N4CCOCC4)nc23)c2cc[nH]c2c1=O (stereo not drawn) [Compound 21]
- IC50 (PI3Kα (p110α/p85α)): 53.7 nM
- IC50 (BRD4 (BD1)): 24.8 nM
- IC50 (PI3Kγ (p110γ)): 2 nM
- IC50 (BRD4 (BD2)): 18.1 nM
- IC50 (PI3Kβ (p110β/p85α)): 118 nM
- IC50 (PI3Kδ (p110δ/p85α)): 3.68 nM

Compound: Cc1cc(-c2cccc3cc(C4CCCN4c4ncnc(N)c4C#N)c(-c4ccccc4)nc23)cn(C)c1=O (stereo not drawn) [Compound 28]
- IC50 (PI3Kα (p110α/p85α)): 1020 nM
- IC50 (BRD4 (BD1)): 446 nM
- IC50 (PI3Kγ (p110γ)): 11.7 nM
- IC50 (BRD4 (BD2)): 148 nM
- IC50 (PI3Kβ (p110β/p85α)): 354 nM
- IC50 (PI3Kδ (p110δ/p85α)): 1.56 nM

Compound: Cc1noc(C)c1-c1cccc2cc(C3CCCN3c3ncnc(N)c3C#N)c(N3CCOCC3)nc12 (stereo not drawn) [Compound 9]
- IC50 (BRD4 (BD1)): 9460 nM
- IC50 (PI3Kδ (p110δ/p85α)): 3.25 nM

Compound: Cc1cc(-c2cccc3cc(C4CCCN4c4ncnc(N)c4C#N)c(N4CCOCC4)nc23)cn(C)c1=O (stereo not drawn) [Compound 11]
- IC50 (PI3Kα (p110α/p85α)): 247 nM
- IC50 (BRD4 (BD1)): 24 nM
- IC50 (PI3Kγ (p110γ)): 56.6 nM
- IC50 (BRD4 (BD2)): 86 nM
- IC50 (PI3Kβ (p110β/p85α)): 567 nM
- IC50 (PI3Kδ (p110δ/p85α)): 5.34 nM

Compound: Cc1cc(-c2ccc(F)c3cc(C4CCCN4c4nc(N)nc(N)c4C#N)c(N4CCOCC4)nc23)cn(C)c1=O (stereo not drawn) [Compound 17]
- IC50 (PI3Kγ (p110γ)): > 10000 nM
- IC50 (BRD4 (BD2)): 745 nM

Compound: Cc1cc(-c2cccc3cc(C4CCCN4c4ncnc(N)c4C#N)c(N4CCCCC4)nc23)cn(C)c1=O (stereo not drawn) [Compound 18]
- IC50 (PI3Kα (p110α/p85α)): 4270 nM
- IC50 (BRD4 (BD1)): 84.5 nM
- IC50 (PI3Kγ (p110γ)): 39.2 nM
- IC50 (BRD4 (BD2)): 85.2 nM
- IC50 (PI3Kβ (p110β/p85α)): 874 nM
- IC50 (PI3Kδ (p110δ/p85α)): 1.89 nM

Compound: Cn1cc(-c2cccc3cc(C4CCCN4c4ncnc(N)c4C#N)c(N4CCOCC4)nc23)c2cc[nH]c2c1=O (stereo not drawn) [Compound 12]
- IC50 (BRD4 (BD1)): 35 nM
- IC50 (PI3Kδ (p110δ/p85α)): 5 nM

Compound: Cc1nnc2ccc(-c3cccc4cc(C5CCCN5c5ncnc(N)c5C#N)c(N5CCOCC5)nc34)nn12 (stereo not drawn) [Compound 10]
- IC50 (BRD4 (BD1)): 3980 nM
- IC50 (PI3Kδ (p110δ/p85α)): 30.5 nM

Compound: Cn1cc(-c2cccc3cc(CNc4nc(N)nc(N)c4C#N)c(N4CCOCC4)nc23)c2cc[nH]c2c1=O [Compound 25]
- IC50 (PI3Kα (p110α/p85α)): 20.5 nM
- IC50 (BRD4 (BD1)): 55.3 nM
- IC50 (PI3Kγ (p110γ)): 16.7 nM
- IC50 (BRD4 (BD2)): 20.7 nM
- IC50 (PI3Kβ (p110β/p85α)): 43.3 nM
- IC50 (PI3Kδ (p110δ/p85α)): 1.98 nM

Compound: Cc1cc(-c2cccc3cc(C4CCCN4c4ncnc(N)c4C#N)c(N(C)C)nc23)cn(C)c1=O (stereo not drawn) [Compound 19]
- IC50 (PI3Kα (p110α/p85α)): 535 nM
- IC50 (BRD4 (BD1)): 23.9 nM
- IC50 (PI3Kγ (p110γ)): 79.8 nM
- IC50 (BRD4 (BD2)): 19.3 nM
- IC50 (PI3Kβ (p110β/p85α)): 596 nM
- IC50 (PI3Kδ (p110δ/p85α)): 3.04 nM

Compound: Cc1cc(-c2ccc3cc(C4CCCN4c4ncnc(N)c4C#N)c(N4CCOCC4)nc3c2)cn(C)c1=O (stereo not drawn) [Compound 8]
- IC50 (BRD4 (BD1)): 28 nM
- IC50 (BRD4 (BD2)): 7.7 nM
- activity against PI3K in words (class I PI3Ks): PI3K-inactive

Compound: Cc1cc(-c2c(F)ccc3cc(C4CCCN4c4nc(N)nc5[nH]cnc45)c(N4CCOCC4)nc23)cn(C)c1=O (stereo not drawn) [Compound 14]
- IC50 (BRD4 (BD1)): > 10000 nM
- IC50 (BRD4 (BD2)): 4210 nM

Compound: Cc1cc(-c2cccc3cc(C4CCCN4c4ncnc(N)c4C#N)c(-c4cccnc4)nc23)cn(C)c1=O (stereo not drawn) [Compound 29]
- IC50 (PI3Kα (p110α/p85α)): 867 nM
- IC50 (BRD4 (BD1)): 37.9 nM
- IC50 (PI3Kγ (p110γ)): 19.2 nM
- IC50 (BRD4 (BD2)): 46.6 nM
- IC50 (PI3Kβ (p110β/p85α)): 263 nM
- IC50 (PI3Kδ (p110δ/p85α)): 1.23 nM

Compound: Cc1nnc2ccc(-c3ccc4cc(C5CCCN5c5ncnc(N)c5C#N)c(N5CCOCC5)nc4c3)nn12 (stereo not drawn) [Compound 7]
- IC50 (BRD4 (BD1)): 694 nM

Compound: Cn1cc(-c2cccc3cc([C@@H]4CCCN4c4nc(N)nc(N)c4C#N)c(N4CCOCC4)nc23)c2cc[nH]c2c1=O [Compound 24]
- IC50 (PI3Kα (p110α/p85α)): 18.2 nM
- IC50 (BRD4 (BD1)): 12.5 nM
- IC50 (PI3Kγ (p110γ)): 1.43 nM
- IC50 (BRD4 (BD2)): 9.07 nM
- IC50 (PI3Kβ (p110β/p85α)): 53.9 nM
- IC50 (PI3Kδ (p110δ/p85α)): 0.938 nM

Compound: CC(C)Nc1nc2c(-c3cn(C)c(=O)c4[nH]ccc34)cccc2cc1C1CCCN1c1ncnc(N)c1C#N (stereo not drawn) [Compound 22]
- IC50 (PI3Kα (p110α/p85α)): 544 nM
- IC50 (BRD4 (BD1)): 636 nM
- IC50 (PI3Kγ (p110γ)): 171 nM
- IC50 (BRD4 (BD2)): 74.5 nM
- IC50 (PI3Kβ (p110β/p85α)): 3550 nM
- IC50 (PI3Kδ (p110δ/p85α)): 19.3 nM

Compound: Cc1nnc2ccc(N3CCN(c4nc5cc(F)ccc5cc4C4CCCN4c4ncnc(N)c4C#N)CC3)nn12 (stereo not drawn) [Compound 4, 4-amino-6-(2-(7-fluoro-2-(4-(3-methyl-[1,2,4]triazolo[4,3-b]pyridazin-6-yl)piperazin-1-yl)quinolin-3-yl)pyrrolidin-1-yl)pyrimidine-5-carbonitrile]
- IC50 (BRD4 (BD1)): 8000 nM
- IC50 (PI3Kδ (p110δ/p85α)): 0.66 nM

Compound: Cc1cc(-c2cccc3cc([C@@H]4CCCN4c4ncnc(N)c4C#N)c(N4CCOCC4)nc23)cn(C)c1=O [Compound 23]
- IC50 (PI3Kα (p110α/p85α)): 153 nM
- IC50 (BRD4 (BD1)): 26.7 nM
- IC50 (PI3Kγ (p110γ)): 13 nM
- IC50 (BRD4 (BD2)): 12.9 nM
- IC50 (PI3Kβ (p110β/p85α)): 191 nM
- IC50 (PI3Kδ (p110δ/p85α)): 0.73 nM
